Experimental data from patent publication US20200352905A1, “6-(2,4-DICHLOROPHENYL)-5-[4-[(3S)-1-(3-FLUOROPROPYL)PYRROLIDIN-3-YL]OXYPHENYL]-8,9-DIHYDRO-7H-BENZO[7]ANNULENE-2-CARBOXYLIC ACID FOR USE IN METASTATIC OR ADVANCED BREAST CANCER PATIENTS” (SANOFI, priority 2019, published 2020).

Assay: TED14856 Part B (dose expansion, 400 mg QD): safety, TEAEs
Assay type: in vivo, human
Conditions: Part B
Experimental: Part B: Dose expansion study to evaluate the efficacy, safety, PK and PD of compound (1) administered at the RD (from Part A). […] A BID regimen (without omission on Day 2) may also be explored if found to be needed. Safety population includes all patients exposed to at least one dose of the study treatment. Treatment emergent adverse events (TEAEs) are analyzed according to current version of the Medical Dictionary for Regulatory Activities (MedDRA) dictionary. Laboratory abnormalities are analyzed according to the NCI-CTCAE v.4.03. Type, frequency, seriousness, severity and relatedness of study treatment TEAEs is analyzed on the safety population for each dose level. Similar analyses as for the escalation phase shall be performed.

## O=C(O)c1ccc2c(c1)CCCC(c1ccc(Cl)cc1Cl)=C2c1ccc(O[C@H]2CCN(CCCF)C2)cc1 [compound (1), 6-(2,4-dichlorophenyl)-5-[4-[(3S)-1-(3-fluoropropyl)pyrrolidin-3-yl]oxyphenyl]-8,9-dihydro-7H-benzo[7]annulene-2-carboxylic acid]
  Grade 3 laboratory abnormality: ALK increase: 2 patients
  Grade 3 laboratory abnormality: ALT increase: 4 patients
  Grade 3 laboratory abnormality: AST increase: 6 patients
  Grade 3 laboratory abnormality: anemia: 1 patients
  Grade 3 laboratory abnormality: bilirubin increase: 3 patients
  Grade 3 laboratory abnormality: hypercalcemia: 1 patients
  Grade 3 laboratory abnormality: hyponatremia: 2 patients
  Grade 3 laboratory abnormality: hypophosphatemia: 2 patients
  Grade 3 laboratory abnormality: lymphopenia: 5 patients
  Grade 3 laboratory abnormality: neutropenia: 1 patients
  Grade 4 laboratory abnormality: hypocalcemia: 1 patients
  Grade 4 laboratory abnormality: hypokalemia: 1 patients
  Grade 4 laboratory abnormality: hyponatremia: 1 patients
400 mg, N=49
  Patients with Gr3 TEAE: Abdominal pain: 0 n
  Patients with Gr3 TEAE: Abdominal pain upper: 0 n
  Patients with Gr3 TEAE: Arthralgia: 0 n
  Patients with Gr3 TEAE: Asthenia: 0 n
  Patients with Gr3 TEAE: Back pain: 0 n
  Patients with Gr3 TEAE: Constipation: 0 n
  Patients with Gr3 TEAE: Cough: 0 n
  Patients with Gr3 TEAE: Decreased appetite: 0 n
  Patients with Gr3 TEAE: Depression: 0 n
  Patients with Gr3 TEAE: Diarrhoea: 0 n
  Patients with Gr3 TEAE: Dry skin: 0 n
  Patients with Gr3 TEAE: Dyspnoea: 0 n
  Patients with Gr3 TEAE: Gastroesophageal reflux disease: 0 n
  Patients with Gr3 TEAE: Headache: 0 n
  Patients with Gr3 TEAE: Hot flush: 0 n
  Patients with Gr3 TEAE: Hypertension: 0 n
  Patients with Gr3 TEAE: Musculoskeletal pain: 0 n
  Patients with Gr3 TEAE: Nasopharyngitis: 0 n
  Patients with Gr3 TEAE: Pyrexia: 0 n
  Patients with Gr3 TEAE: Rhinitis allergic: 0 n
  Patients with Gr3 TEAE: Urinary tract infection: 0 n
  Patients with related Gr3 TEAE: ALL: 0 n
  Patients with related Gr3 TEAE: ALT increased: 0 n
  Patients with related Gr3 TEAE: AST increased: 0 n
  Patients with related Gr3 TEAE: Abdominal pain: 0 n
  Patients with related Gr3 TEAE: Abdominal pain upper: 0 n
  Patients with related Gr3 TEAE: Arthralgia: 0 n
  Patients with related Gr3 TEAE: Asthenia: 0 n
  Patients with related Gr3 TEAE: Back pain: 0 n
  Patients with related Gr3 TEAE: Constipation: 0 n
  Patients with related Gr3 TEAE: Cough: 0 n
  Patients with related Gr3 TEAE: Decreased appetite: 0 n
  Patients with related Gr3 TEAE: Depression: 0 n
  Patients with related Gr3 TEAE: Diarrhoea: 0 n
  Patients with related Gr3 TEAE: Dry skin: 0 n
  Patients with related Gr3 TEAE: Dyspnoea: 0 n
  Patients with related Gr3 TEAE: Fatigue: 0 n
  Patients with related Gr3 TEAE: Gastroesophageal reflux disease: 0 n
  Patients with related Gr3 TEAE: Headache: 0 n
  Patients with related Gr3 TEAE: Hot flush: 0 n
  Patients with related Gr3 TEAE: Hypertension: 0 n
  Patients with related Gr3 TEAE: Musculoskeletal pain: 0 n
  Patients with related Gr3 TEAE: Nasopharyngitis: 0 n
  Patients with related Gr3 TEAE: Nausea: 0 n
  Patients with related Gr3 TEAE: Pyrexia: 0 n
  Patients with related Gr3 TEAE: Rhinitis allergic: 0 n
  Patients with related Gr3 TEAE: Urinary tract infection: 0 n
  Patients with related Gr3 TEAE: Vomiting: 0 n
  Patients with related TEAE: ALT increased: 0 n
  Patients with related TEAE: AST increased: 0 n
